Experimental data as given in US10588317B2, “Isoxazoline-substituted benzamides and analogues as insecticides” (priority 2015, dated 2020).

Columns and labels:
Format in all cases: in vivo
Plutella xylostella = Plutella xylostella (diamond back moth), artificial diet; conditions: 120 h, application rate 200 ppm, L2 larvae, 5 days after infestation, read-out: effect in at least one of the two categories (mortality or growth inhibition)
Outline: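 L2 larvae (10-15 per well) fed on compound-treated, dried artificial diet; test solutions diluted in water from 10'000 ppm DMSO stocks. Readout 5 days post-infestation as mortality or growth inhibition versus untreated diet, with at least 80% effect at 200 ppm as threshold.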

Spodoptera littoralis [1] = experiment: Spodoptera littoralis (Egyptian cotton leaf worm), sprayed cotton leaf discs; conditions: foliar, 72 h, application rate 200 ppm, L1 larvae, 3 days after infestation, read-out: control (mortality, anti-feeding effect, growth inhibition)
Outline: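 Five first-instar larvae placed on dried cotton leaf discs (on agar) previously sprayed with aqueous dilutions of 10'000 ppm DMSO stocks. Scored at 3 days against untreated discs for mortality, feeding inhibition and growth inhibition; any category above untreated counts as control.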

Myzus persicae = Myzus persicae (green peach aphid): feeding/contact activity; conditions: 144 h, application rate 200 ppm, aphid population of mixed ages, 6 days after infestation, read-out: mortality
Procedure: Sunflower leaf discs were placed onto agar in a 24-well microtiter plate and sprayed with aqueous test solutions prepared from 10'000 ppm DMSO stock solutions. After drying, the leaf discs were infested with an aphid population of mixed ages. The samples were assessed for mortality 6 days after infestation.

Thrips tabaci = Thrips tabaci (onion thrips): feeding/contact activity; conditions: 144 h, application rate 200 ppm, Thrips population of mixed ages, 6 days after infestation, read-out: mortality
Procedure: Sunflower leaf discs were placed on agar in 24-well microtiter plates and sprayed with aqueous test solutions prepared from 10'000 ppm DMSO stock solutions. After drying the leaf discs were infested with a Thrips population of mixed ages. The samples were assessed for mortality 6 days after infestation.

Spodoptera littoralis [2] = experiment: Spodoptera littoralis (Egyptian cotton leaf worm), uptake by lettuce roots from agar; conditions: 144 h, read-out: effect in at least one of the three categories (mortality, anti-feeding, or growth inhibition)
Outline: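 Systemic test: Spodoptera eggs placed on lettuce leaves from seedlings raised 7 days on agar containing the compound (diluted from 10'000 ppm DMSO stock). Six days after infestation, larvae scored against untreated controls for mortality, feeding deterrence and growth inhibition.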

Tetranychus urticae = Tetranychus urticae (two-spotted spider mite): feeding/contact activity; conditions: 192 h, application rate 200 ppm, mixed population (mobile stages), 8 days after infestation, read-out: mortality
Procedure: Bean leaf discs on agar in 24-well microtiter plates were sprayed with aqueous test solutions prepared from 10'000 ppm DMSO stock solutions. After drying the leaf discs were infested with a mite population of mixed ages. The samples were assessed for mortality on mixed population (mobile stages) 8 days after infestation.

Euschistus heros = Euschistus heros (neotropical brown stink bug), sprayed soybean leaves; conditions: 120 h, application rate 200 ppm, N2 nymphs, 5 days after infestation, read-out: effect in at least one of the two categories (mortality or growth inhibition)
Outline: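 Scored 5 days post-infestation versus untreated controls, for both mortality and growth inhibition: N2 nymphs placed on agar-mounted soybean leaves previously sprayed at 200 ppm with aqueous test solutions from DMSO stocks and left to dry.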

Diabrotica balteata = Diabrotica balteata (corn root worm), sprayed maize sprouts; conditions: 96 h, application rate 200 ppm, L2 larvae, 4 days after infestation, read-out: effect in at least one of the two categories (mortality or growth inhibition)
Outline: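 Read-out at 4 days post-infestation: mortality and growth inhibition relative to untreated samples. Test solutions (200 ppm, from DMSO stocks) were sprayed onto agar-held maize sprouts, which after drying received 6–10 L2 larvae per well.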

CCS(=O)(=O)N1C[C@@H](NC(=O)c2ccc(C3=NO[C@@](c4cc(Cl)cc(C(F)(F)F)c4)(C(F)(F)F)C3)cc2C)CO1 [Compound A120, 4-[(5S)-5-[3-chloro-5-(trifluoromethyl)phenyl]-5-(trifluoromethyl)-4H-isoxazol-3-yl]-N-[(4R)-2-ethylsulfonylisoxazolidin-4-yl]-2-methyl-benzamide]
≥ 80%: percent effect (mortality or growth inhibition) at 200 ppm (Plutella xylostella) | mortality at 200 ppm (Spodoptera littoralis [1]) | mortality at 200 ppm (Myzus persicae) | mortality at 200 ppm (Thrips tabaci) | percent control (mortality, anti-feedant effect or growth inhibition) at 12.5 ppm (Spodoptera littoralis [2]) | mortality at 200 ppm (Tetranychus urticae) | percent effect (mortality or growth inhibition) at 200 ppm (Euschistus heros) | percent effect (mortality or growth inhibition) at 200 ppm (Diabrotica balteata)

CCOC(=O)N(C)S(=O)(=O)N1CC(NC(=O)c2ccc(C3=NO[C@@](c4cc(Cl)c(F)c(Cl)c4)(C(F)(F)F)C3)cc2C)CO1 (stereo partly drawn) [Compound A76]
≥ 80%: percent effect (mortality or growth inhibition) at 200 ppm (Plutella xylostella) | mortality at 200 ppm (Spodoptera littoralis [1]) | mortality at 200 ppm (Myzus persicae) | mortality at 200 ppm (Thrips tabaci) | percent control (mortality, anti-feedant effect or growth inhibition) at 12.5 ppm (Spodoptera littoralis [2]) | mortality at 200 ppm (Tetranychus urticae) | percent effect (mortality or growth inhibition) at 200 ppm (Euschistus heros) | percent effect (mortality or growth inhibition) at 200 ppm (Diabrotica balteata)

Cc1cc(C2=NOC(c3cc(Cl)cc(Cl)c3)(C(F)(F)F)C2)ccc1C(=O)NC1CON(S(C)(=O)=O)C1 (stereo not drawn) [Compound A33, 4-[5-(3,5-dichlorophenyl)-5-(trifluoromethyl)-4H-isoxazol-3-yl]-2-methyl-N-(2-methylsulfonylisoxazolidin-4-yl)benzamide]
≥ 80%: percent effect (mortality or growth inhibition) at 200 ppm (Plutella xylostella) | mortality at 200 ppm (Spodoptera littoralis [1]) | mortality at 200 ppm (Myzus persicae) | mortality at 200 ppm (Thrips tabaci) | percent control (mortality, anti-feedant effect or growth inhibition) at 12.5 ppm (Spodoptera littoralis [2]) | mortality at 200 ppm (Tetranychus urticae) | percent effect (mortality or growth inhibition) at 200 ppm (Euschistus heros) | percent effect (mortality or growth inhibition) at 200 ppm (Diabrotica balteata)

Cc1cc(C2=NO[C@@](c3cc(Cl)cc(C(F)(F)F)c3)(C(F)(F)F)C2)ccc1C(=O)N[C@H]1CON(S(C)(=O)=O)C1 [Compound A75]
≥ 80%: percent effect (mortality or growth inhibition) at 200 ppm (Plutella xylostella) | mortality at 200 ppm (Spodoptera littoralis [1]) | mortality at 200 ppm (Myzus persicae) | mortality at 200 ppm (Thrips tabaci) | percent control (mortality, anti-feedant effect or growth inhibition) at 12.5 ppm (Spodoptera littoralis [2]) | mortality at 200 ppm (Tetranychus urticae) | percent effect (mortality or growth inhibition) at 200 ppm (Euschistus heros) | percent effect (mortality or growth inhibition) at 200 ppm (Diabrotica balteata)

CCS(=O)(=O)N1C[C@@H](NC(=O)c2ccc(C3=NO[C@@](c4cc(Cl)c(F)c(Cl)c4)(C(F)(F)F)C3)cc2C)CO1 [Compound A119]
≥ 80%: percent effect (mortality or growth inhibition) at 200 ppm (Plutella xylostella) | mortality at 200 ppm (Spodoptera littoralis [1]) | mortality at 200 ppm (Myzus persicae) | mortality at 200 ppm (Thrips tabaci) | percent control (mortality, anti-feedant effect or growth inhibition) at 12.5 ppm (Spodoptera littoralis [2]) | mortality at 200 ppm (Tetranychus urticae) | percent effect (mortality or growth inhibition) at 200 ppm (Euschistus heros) | percent effect (mortality or growth inhibition) at 200 ppm (Diabrotica balteata)

Cc1cc(C2=NO[C@@](c3cc(Cl)c(F)c(Cl)c3)(C(F)(F)F)C2)ccc1C(=O)N[C@H]1CON(S(C)(=O)=O)C1 (single isomer, unassigned) [Compound A13]
≥ 80%: percent effect (mortality or growth inhibition) at 200 ppm (Plutella xylostella) | mortality at 200 ppm (Spodoptera littoralis [1]) | mortality at 200 ppm (Myzus persicae) | mortality at 200 ppm (Thrips tabaci) | percent control (mortality, anti-feedant effect or growth inhibition) at 12.5 ppm (Spodoptera littoralis [2]) | mortality at 200 ppm (Tetranychus urticae) | percent effect (mortality or growth inhibition) at 200 ppm (Euschistus heros) | percent effect (mortality or growth inhibition) at 200 ppm (Diabrotica balteata)

Cc1cc(C2=NOC(c3cc(Cl)c(F)c(Cl)c3)(C(F)(F)F)C2)ccc1C(=O)NC1CON(S(C)(=O)=O)C1 (stereo not drawn) [Compound A63]
≥ 80%: percent effect (mortality or growth inhibition) at 200 ppm (Plutella xylostella) | mortality at 200 ppm (Spodoptera littoralis [1]) | mortality at 200 ppm (Myzus persicae) | mortality at 200 ppm (Thrips tabaci) | percent control (mortality, anti-feedant effect or growth inhibition) at 12.5 ppm (Spodoptera littoralis [2]) | mortality at 200 ppm (Tetranychus urticae) | percent effect (mortality or growth inhibition) at 200 ppm (Euschistus heros) | percent effect (mortality or growth inhibition) at 200 ppm (Diabrotica balteata)

C#CCNS(=O)(=O)N1C[C@@H](NC(=O)c2ccc(C3=NO[C@@](c4cc(Cl)cc(Cl)c4)(C(F)(F)F)C3)cc2Cl)CO1 [Compound A158]
≥ 80%: percent effect (mortality or growth inhibition) at 200 ppm (Plutella xylostella) | mortality at 200 ppm (Spodoptera littoralis [1]) | mortality at 200 ppm (Myzus persicae) | mortality at 200 ppm (Thrips tabaci) | percent control (mortality, anti-feedant effect or growth inhibition) at 12.5 ppm (Spodoptera littoralis [2]) | mortality at 200 ppm (Tetranychus urticae) | percent effect (mortality or growth inhibition) at 200 ppm (Euschistus heros) | percent effect (mortality or growth inhibition) at 200 ppm (Diabrotica balteata)

CCN(C)S(=O)(=O)N1C[C@@H](NC(=O)c2ccc(C3=NO[C@@](c4cc(Cl)cc(C(F)(F)F)c4)(C(F)(F)F)C3)cc2C)CO1 [Compound A141]
≥ 80%: percent effect (mortality or growth inhibition) at 200 ppm (Plutella xylostella) | mortality at 200 ppm (Spodoptera littoralis [1]) | mortality at 200 ppm (Myzus persicae) | mortality at 200 ppm (Thrips tabaci) | percent control (mortality, anti-feedant effect or growth inhibition) at 12.5 ppm (Spodoptera littoralis [2]) | mortality at 200 ppm (Tetranychus urticae) | percent effect (mortality or growth inhibition) at 200 ppm (Euschistus heros) | percent effect (mortality or growth inhibition) at 200 ppm (Diabrotica balteata)

Cc1cc(C2=NO[C@@](c3cccc(C(F)(F)F)c3)(C(F)(F)F)C2)ccc1C(=O)N[C@H]1CON(S(=O)(=O)N(C)C)C1 [Compound A111]
≥ 80%: percent effect (mortality or growth inhibition) at 200 ppm (Plutella xylostella) | mortality at 200 ppm (Spodoptera littoralis [1]) | mortality at 200 ppm (Myzus persicae) | mortality at 200 ppm (Thrips tabaci) | percent effect (mortality, anti-feeding or growth inhibition) at 12.5 ppm (Spodoptera littoralis [2]; test rate 12.5 ppm, eggs, 6 days after infestation) | mortality at 200 ppm (Tetranychus urticae) | percent effect (mortality or growth inhibition) at 200 ppm (Euschistus heros) | percent effect (mortality or growth inhibition) at 200 ppm (Diabrotica balteata)

CNS(=O)(=O)N1C[C@@H](NC(=O)c2ccc(C3=NO[C@@](c4cc(Cl)cc(Cl)c4)(C(F)(F)F)C3)cc2Cl)CO1 [Compound A114, 2-chloro-4-[(5S)-5-(3,5-dichlorophenyl)-5-(trifluoromethyl)-4H-isoxazol-3-yl]-N-[(4R)-2-(methylsulfamoyl)isoxazolidin-4-yl]benzamide]
≥ 80%: percent effect (mortality or growth inhibition) at 200 ppm (Plutella xylostella) | mortality at 200 ppm (Spodoptera littoralis [1]) | mortality at 200 ppm (Myzus persicae) | mortality at 200 ppm (Thrips tabaci) | percent control (mortality, anti-feedant effect or growth inhibition) at 12.5 ppm (Spodoptera littoralis [2]) | mortality at 200 ppm (Tetranychus urticae) | percent effect (mortality or growth inhibition) at 200 ppm (Euschistus heros) | percent effect (mortality or growth inhibition) at 200 ppm (Diabrotica balteata)

CS(=O)(=O)N1CC(NC(=O)c2ccc(C3=NO[C@@](c4cc(Cl)c(F)c(Cl)c4)(C(F)(F)F)C3)cc2Cl)CO1 (stereo partly drawn) [Compound A19, 2-chloro-4-[(5S)-5-(3,5-dichloro-4-fluoro-phenyl)-5-(trifluoromethyl)-4H-isoxazol-3-yl]-N-(2-methylsulfonylisoxazolidin-4-yl)benzamide]
≥ 80%: percent effect (mortality or growth inhibition) at 200 ppm (Plutella xylostella) | mortality at 200 ppm (Spodoptera littoralis [1]) | mortality at 200 ppm (Myzus persicae) | mortality at 200 ppm (Thrips tabaci) | percent control (mortality, anti-feedant effect or growth inhibition) at 12.5 ppm (Spodoptera littoralis [2]) | mortality at 200 ppm (Tetranychus urticae) | percent effect (mortality or growth inhibition) at 200 ppm (Euschistus heros) | percent effect (mortality or growth inhibition) at 200 ppm (Diabrotica balteata)
